{
  "source": "the NIST ThermoML archive (doi:10.1021/je0600552)",
  "key": {"[1]": {"assay": "Molar enthalpy of transition or fusion", "conditions": "Crystal; DSC"}, "[2]": {"conditions": "Crystal; DTA"}},
  "note": "± gives the expanded uncertainty stated by the source.",
  "data": [
    {"smiles": "Cc1ccc2[nH]c3c(c2c1)CCCC3=O", "note": "[1-keto-1,2,3,4-tetrahydro-6-methylcarbazole]", "values": [
      {"measurement": "Molar enthalpy of transition or fusion", "setting": "[1]", "result": "6.43 ± 0.143", "unit": "kcal/mol"},
      {"measurement": "Normal melting temperature", "setting": "[2]", "result": "195.30 ± 0.9", "unit": "°C"}
    ]}
  ]
}
